The test system of data set [1] is Trypanosoma cruzi. Put plainly: Antitrypanosomal activity against tissue-culture derived trypomastigote form of Trypanosoma cruzi Y measured after 120 hrs. Format: functional.
Data set [2] has as its system Trypanosoma cruzi. Description: Antitrypanosomal activity against Trypanosoma cruzi Tulahuen expressing beta-galactosidase gene infected in mouse L929 cells measured after 120 hrs. In kind it is functional, organism-based. The conditions noted are these: L929, 120 h.
Data set [3] in a line: Cytotoxicity against mouse L929 cells assessed as inhibition of cell viability measured after 120 hrs. Format: toxicity, cell-based.
A short description of data set [4]: Selectivity index, ratio of CC50 for mouse L929 cells to IC50 for Trypanosoma cruzi Tulahuen expressing beta-galactosidase gene infected in mouse L929 cells. In kind it is toxicity, cell-based. The note with it: read-out: Ratio CC50/IC50.
Data set [5] is described as follows: Selectivity index, ratio of LC50 for mouse peritoneal macrophage cells to IC50 for bloodstream trypomastigote form of Trypanosoma cruzi Y. In kind it is toxicity. The note with it: peritoneal macrophages, read-out: Ratio LC50/IC50.
Data set [6] relates to Trypanosoma cruzi. Put plainly: Antitrypanosomal activity against bloodstream trypomastigote form of Trypanosoma cruzi Y measured after 24 hrs. Format: functional, organism-based.
A short description of data set [7]: Cytotoxicity against non-infected mouse peritoneal macrophage cells measured after 24 hrs. The conditions noted are these: non-infected peritoneal macrophages, read-out: LC50. In kind it is toxicity, cell-based.
For data set [8], the system named is Leishmania infantum. Put plainly: Antiparasitic activity against Leishmania infantum promastigotes infected in mouse RAW264.7 cells measured after 48 hrs. Format: functional, organism-based.
Data set [9] in a line: Selectivity index, ratio of CC50 for mouse RAW264.7 cells to IC50 for Leishmania amazonensis amastigotes infected in mouse RAW264.7 cells. In kind it is toxicity, cell-based. The conditions noted are these: read-out: Ratio CC50/IC50.
Data set [10] addresses Cruzipain (Trypanosoma cruzi) (UniProt P25779). Put plainly: Inhibition of Trypanosoma cruzi cruzain at 100 uM relative to control.
Data set [11] has as its system Leishmania infantum. Description: Antiparasitic activity against Leishmania infantum amastigotes infected in mouse RAW264.7 cells measured after 48 hrs. The note with it: for pIC50: RAW264.7, 48 h. Format: functional, organism-based.
Data set [12] is described as follows: Selectivity index, ratio of CC50 for mouse RAW264.7 cells to IC50 for Leishmania infantum amastigotes infected in mouse RAW264.7 cells. Format: toxicity, cell-based. The conditions noted are these: read-out: Ratio CC50/IC50.
The nature of data set [13]: Cytotoxicity against mouse RAW264.7 cells measured after 48 hrs. In kind it is toxicity, cell-based.
The test system of data set [14] is Leishmania amazonensis. Description: Antiparasitic activity against Leishmania amazonensis amastigotes infected in mouse RAW264.7 cells measured after 48 hrs. In kind it is functional, organism-based. The conditions noted are these: for pIC50: RAW264.7, 48 h.
For data set [15], the system named is Leishmania amazonensis. Put plainly: Antiparasitic activity against Leishmania amazonensis promastigotes infected in mouse RAW264.7 cells measured after 48 hrs. In kind it is functional, organism-based.

Here are results for 16 compounds from ChEMBL document CHEMBL5576098, “Synthesis and activity of benzimidazole N-Acylhydrazones against Trypanosoma cruzi, Leishmania amazonensis and Leishmania infantum” (Bioorg Med Chem Lett, 2024).

pIC50: −log10 of the molar value. Activity calls are given as the source filed them. The calls are words filed in the database; no cut-off is given here.

Cruzipain (Trypanosoma cruzi), sequence (P25779 123-467 limits assumed): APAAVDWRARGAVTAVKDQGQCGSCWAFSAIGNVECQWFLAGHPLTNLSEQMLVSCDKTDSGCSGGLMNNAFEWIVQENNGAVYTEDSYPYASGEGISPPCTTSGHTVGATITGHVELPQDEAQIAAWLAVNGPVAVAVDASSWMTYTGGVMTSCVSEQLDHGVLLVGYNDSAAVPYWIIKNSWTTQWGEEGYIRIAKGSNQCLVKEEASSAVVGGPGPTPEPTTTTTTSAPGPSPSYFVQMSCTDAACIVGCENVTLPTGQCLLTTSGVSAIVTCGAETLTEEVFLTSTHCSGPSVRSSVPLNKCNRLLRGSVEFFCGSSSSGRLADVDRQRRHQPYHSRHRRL

`O=C(Cn1ccnc1[N+](=O)[O-])NCc1ccccc1` [BENZNIDAZOLE]: the LC50 in [1] is 10.8 µM. Besides, the negative logarithm of the IC50 (pIC50) in data set [2] was 5.82; in data set [6] it was 5.06. Besides, in data set [3], the CC50 at 120 h amounted to 2110 µM. Moreover, the selectivity ratio in data set [4] worked out at 1390; in [5] it was 113. In data set [7], the CC50 at 24 h was > 1000 µM.
`O=C(N/N=C/c1cccs1)c1nc2ccccc2[nH]1`: the result in data set [8] and in [15] was inactive. The selectivity ratio was determined as 2.1 in [9], 2.7 in data set [12] and 1.9 in [4]. In addition, the inhibition in [10] was 24%. In addition, the negative logarithm of the IC50 (pIC50) in data set [11] is 4.31; in [2], 4.04; in data set [14], 4.21; in data set [6], < 3.30. Moreover, the LC50 in [1] stood at 416 µM. In [3], the CC50 at 120 h amounted to 170 µM. The CC50 at 48 h in [13] was 131 µM.
In the case of `O=C(N/N=C/c1ccncc1)c1nc2ccccc2[nH]1`, the result in data set [8], in [11] and in data set [15] was inactive. Also, the selectivity ratio is 0.7 in [9] and 8.2 in data set [4]. The compound further came in with an inhibition in data set [10] of 20%. Further, the LC50 in [1] amounted to 619 µM. Moreover, the pIC50 in data set [2] was 4.49; in [14] it was 3.77; in [6] it was < 3.30. Also, the CC50 at 120 h in data set [3] is 265 µM. This compound displayed a CC50 at 48 h in data set [13] of 126 µM.
On to `COc1cc(/C=N/NC(=O)c2nc3ccccc3[nH]2)cc([N+](=O)[O-])c1O`, for which the outcome in [8], in data set [11], in [14] and in data set [15] was inactive. This compound also showed an inhibition in data set [10] of 45%. The same compound returned an LC50 in data set [1] of 369 µM. For the same compound, the negative-log IC50 (pIC50) in [2] was 3.98; in [6] it was < 3.30. In addition, the CC50 at 120 h in [3] came out at 124 µM. Besides, in [4], the selectivity ratio stood at 1.2. Besides, the CC50 at 48 h in [13] was 84.4 µM.
As for `COc1cc(/C=N/NC(=O)c2nc3ccccc3[nH]2)cc(OC)c1`, the result in [8], in data set [11] and in [15] was inactive. In addition, the selectivity ratio in [9] stood at 0.1; in data set [4] it was 5.6. The same compound had an inhibition in data set [10] of 50%. Further, the pIC50 was 4.54 in [2], 4.14 in data set [14] and < 3.30 in [6]. Further, the CC50 at 120 h in data set [3] came out at 164 µM. The CC50 at 48 h in [13] is 8.94 µM.
Consider `COc1cc(/C=N/NC(=O)c2nc3ccccc3[nH]2)cc(OC)c1OC`, for which the result in [8] was inactive. Also, the values for the selectivity ratio in data set [9] and in data set [4] were 0.3 and 5.7, respectively. In addition, in data set [10], the inhibition stood at 6%. Also, the pIC50 is < 3.55 in data set [11]; 4.45 in data set [2]; 3.83 in data set [14]; < 3.55 in data set [15] (RAW264.7, 48 h); < 3.30 in [6]. This compound yielded an LC50 in [1] of 343 µM. For the same compound, the CC50 at 120 h in [3] was 203 µM. The CC50 at 48 h in data set [13] worked out at 42.3 µM.
`COc1cc(/C=N/NC(=O)c2nc3ccccc3[nH]2)ccc1O`: the outcome in data set [8], in data set [11], in data set [14] and in [15] was inactive. Moreover, in data set [10], the inhibition was 38%. Also, in data set [1], the 50% lethal concentration (LC50) worked out at 394 µM. Moreover, the pIC50 was 4.18 in [2] and < 3.30 in data set [6]. Further, the CC50 at 120 h in data set [3] is 72.2 µM. Further, the selectivity ratio in [4] came to 1.1. In addition, the CC50 at 48 h in data set [13] was determined as 89.9 µM.
For `O=C(N/N=C/c1ccc(F)cc1)c1nc2ccccc2[nH]1`, the outcome in [8] and in data set [15] was inactive. Besides, the inhibition in data set [10] worked out at 17%. Besides, the pIC50 in [11] was 4.73; in [2], 3.64; in data set [14], < 3.45; in data set [6], < 3.30. The same compound gave an LC50 in data set [1] of 633 µM. Besides, the CC50 at 120 h in data set [3] was 354 µM. Further, the selectivity ratio was determined as 3.1 in data set [12] and 1.5 in [4]. Moreover, the CC50 at 48 h in [13] is 57.8 µM.
Take `O=C(N/N=C/c1ccc([N+](=O)[O-])cc1)c1nc2ccccc2[nH]1`: the result in [8], in data set [11], in [14] and in data set [15] was inactive. In data set [10], the inhibition was determined as 2%. The LC50 in [1] turned out to be 328 µM. Besides, the pIC50 in [2] is 3.69; in data set [6], < 3.30. The CC50 at 120 h in data set [3] was > 323 µM. Besides, the selectivity ratio in data set [4] is > 1.6. This compound also yielded a CC50 at 48 h in data set [13] of 84.4 µM.
In the case of `O=C(N/N=C/c1ccc2c(c1)OCO2)c1nc2ccccc2[nH]1`, the result in [8], in data set [11] and in data set [15] was inactive. Further, the selectivity ratio is 0.7 in [9] and 1.4 in [4]. This compound also had an inhibition in [10] of 47%. Further, the pIC50 in [2] was 3.98; in data set [14] it was 4.35; in data set [6] it was < 3.30. Moreover, the CC50 at 120 h in data set [3] stood at 148 µM. Further, in data set [13], the CC50 at 48 h amounted to 30.1 µM.
As for `COc1ccc(/C=N/NC(=O)c2nc3ccccc3[nH]2)cc1OC`, the outcome in data set [8], in data set [11], in data set [14] and in data set [15] was inactive. The compound also displayed an inhibition in data set [10] of 35%. Besides, the pIC50 is 3.76 in data set [2] and 3.80 in [6]. For the same compound, the CC50 at 120 h in data set [3] amounted to 293 µM. In addition, the selectivity ratio in data set [4] was 1.7; in data set [5], > 3.1. This compound also gave a CC50 at 48 h in [13] of 53.6 µM. In data set [7], the CC50 at 24 h is > 500 µM.
In the case of `O=C(N/N=C/c1ccccc1)c1nc2ccccc2[nH]1`, the result in [8] and in data set [15] was inactive. For the same compound, the selectivity ratio in [9] was 0.6; in data set [12] it was 2.3; in [4], 2.1. Moreover, the inhibition in [10] was found to be 25%. Besides, the pIC50 in data set [11] was 4.27; in data set [2], 4.01; in [14], 3.72; in [6], < 3.30. Besides, the CC50 at 120 h in [3] was 204 µM. Besides, in data set [13], the CC50 at 48 h was determined as 123 µM.
With `O=C(N/N=C/c1ccc(Cl)cc1)c1nc2ccccc2[nH]1`, the pIC50 was < 3.48 in data set [8] (RAW264.7, 48 h); 4.55 in data set [11]; 4.83 in data set [2]; < 3.30 in data set [6]. In data set [10], the inhibition worked out at 3%. For the same compound, the CC50 at 120 h in data set [3] amounted to 51.9 µM. Further, the selectivity ratio in data set [12] stood at 0.4; in data set [4] it was 3.5. This compound also came in with a CC50 at 48 h in data set [13] of 12.4 µM. Further, the result in data set [14] and in data set [15] was inactive.
Consider `COc1ccc(/C=N/NC(=O)c2nc3ccccc3[nH]2)cc1`, for which the outcome in data set [8] and in data set [15] was inactive. In addition, the results for the selectivity ratio in [9], in [12] and in [4] were 5.4, 5.1 and 2.1, respectively. In data set [10], the inhibition came to 22%. The pIC50 is 4.44 in data set [11], 4.09 in data set [2], 4.46 in [14] and 3.68 in [6]. The compound further returned a median lethal concentration (LC50) in [1] of 472 µM. Also, the CC50 at 120 h in [3] came to 170 µM. In addition, the CC50 at 48 h in data set [13] was 188 µM. Also, the CC50 at 24 h in data set [7] is > 500 µM.
On to `O=C(N/N=C/c1ccc(Br)cc1)c1nc2ccccc2[nH]1`, for which the outcome in data set [8], in data set [11], in [14] and in data set [15] was inactive. In [10], this compound yielded an inhibition of 3%. For the same compound, the pIC50 in data set [2] was 5.14; in [6] it was < 3.30. Further, in [3], the CC50 at 120 h was found to be 49.8 µM. For the same compound, in data set [4], the selectivity ratio came to 6.8. Further, the CC50 at 48 h in [13] is 8.6 µM.
Consider `O=C(N/N=C/c1ccc(O)cc1)c1nc2ccccc2[nH]1`, for which the outcome in data set [8], in data set [14] and in [15] was inactive. The inhibition in [10] turned out to be 65%. The values for the pIC50 in [11], in [2] and in data set [6] were 4.01, 4.16 and 4.05, respectively. Further, the LC50 in [1] worked out at 233 µM. Further, the CC50 at 120 h in [3] is 170 µM. For the same compound, the results for the selectivity ratio in [12], in data set [4] and in [5] were 0.9, 2.5 and > 5.6, respectively. Moreover, in data set [13], the CC50 at 48 h came out at 88.8 µM. In [7], the CC50 at 24 h was > 500 µM.
